The source of these data is ChEMBL document CHEMBL1152527, “Tessaric acid derivatives induce G2/M cell cycle arrest in human solid tumor cell lines” (2009).

What all share (format): functional
For experiment [1], the system named is T47D. Description: Cell cycle arrest in human T47D cells assessed as increase in accumulation at sub G0 phase at 3 to 6 uM treated for 24 hrs measured after 24 hrs of drug washout by propidium iodide staining-based FACS analysis.
The subject of experiment [2] is WiDr. Kind of experiment: Growth inhibition of human WiDr cells after 48 hrs by sulforhodamine B assay. (The SRB assay estimates cell density from bound dye.)
The test system of experiment [3] is WiDr. Description: Cell cycle arrest in human WiDr cells assessed as increase in accumulation at sub G0 phase at 3 to 6 uM treated for 24 hrs measured after 24 hrs of drug washout by propidium iodide staining-based FACS analysis. For orientation: Flow cytometry measures light scatter and fluorescence of single cells or particles in a stream.
In experiment [4] the test system is A2780. Description: Growth inhibition of human A2780 cells after 48 hrs by sulforhodamine B assay. To be noted: A2780, 48 h.
Experiment [5] concerns SW1573. Description: Cell cycle arrest in human SW1573 cells assessed as accumulation at S phase at 6 uM after 24 hrs by propidium iodide staining-based FACS analysis.
Experiment [6] has as its system HeLa. Description: Cell cycle arrest in human HeLa cells assessed as accumulation at G2/M phase at 3 uM after 24 hrs by propidium iodide staining-based FACS analysis.
Experiment [7] has as its system SW1573. Description: Cell cycle arrest in human SW1573 cells assessed as accumulation at G2/M phase at 6 uM after 24 hrs by propidium iodide staining-based FACS analysis.
In experiment [8] the test system is T47D. Kind of experiment: Cell cycle arrest in human T47D cells assessed as decrease in accumulation at S phase at 6 uM after 24 hrs by propidium iodide staining-based FACS analysis.
Experiment [9] deals with WiDr. Kind of experiment: Cell cycle arrest in human WiDr cells assessed as decrease in accumulation at S phase at 6 uM after 24 hrs by propidium iodide staining-based FACS analysis.
Experiment [10] concerns T47D. Description: Growth inhibition of human T47D cells after 48 hrs by sulforhodamine B assay.
Experiment [11] relates to SW1573. Kind of experiment: Cell cycle arrest in human SW1573 cells assessed as accumulation at G2/M phase at 3 uM after 24 hrs by propidium iodide staining-based FACS analysis.
Experiment [12] has as its system HeLa. Kind of experiment: Growth inhibition of human HeLa cells after 48 hrs by sulforhodamine B assay.
Experiment [13] has as its system HeLa. Description: Cell cycle arrest in human HeLa cells assessed as decrease in accumulation at S phase at 3 uM after 24 hrs by propidium iodide staining-based FACS analysis.
The test system of experiment [14] is HeLa. Description: Cell cycle arrest in human HeLa cells assessed as accumulation at S phase at 6 uM after 24 hrs by propidium iodide staining-based FACS analysis.
The subject of experiment [15] is T47D. Kind of experiment: Cell cycle arrest in human T47D cells assessed as accumulation at G2/M phase at 6 uM after 24 hrs by propidium iodide staining-based FACS analysis.
For experiment [16], the system named is HeLa. Kind of experiment: Cell cycle arrest in human HeLa cells assessed as decrease in accumulation at G0/G1 phase at 6 uM after 24 hrs by propidium iodide staining-based FACS analysis.
For experiment [17], the system named is SW1573. Kind of experiment: Growth inhibition of human SW1573 cells after 48 hrs by sulforhodamine B assay. Conditions: SW1573, 48 h.
Experiment [18] relates to SW1573. Description: Cell cycle arrest in human SW1573 cells assessed as decrease in accumulation at S phase at 3 uM after 24 hrs by propidium iodide staining-based FACS analysis.
The test system of experiment [19] is SW1573. Kind of experiment: Cell cycle arrest in human SW1573 cells assessed as decrease in accumulation at G0/G1 phase at 6 uM after 24 hrs by propidium iodide staining-based FACS analysis.
In experiment [20] the test system is HeLa. Description: Cell cycle arrest in human HeLa cells assessed as accumulation at G2/M phase at 6 uM after 24 hrs by propidium iodide staining-based FACS analysis.
In experiment [21] the test system is WiDr. Kind of experiment: Cell cycle arrest in human WiDr cells assessed as accumulation at G2/M phase at 6 uM after 24 hrs by propidium iodide staining-based FACS analysis.
The subject of experiment [22] is HBL-100. Description: Growth inhibition of human HBL100 cells after 48 hrs by sulforhodamine B assay. To be noted: HBL-100, 48 h.
Experiment [23] deals with WiDr. Description: Cell cycle arrest in human WiDr cells assessed as minor accumulation at G2/M phase at 5 to 20 uM after 24 hrs by propidium iodide staining-based FACS analysis.
Experiment [24] concerns HeLa. Description: Cell cycle arrest in human HeLa cells assessed as minor accumulation at S phase at 5 to 20 uM after 24 hrs by propidium iodide staining-based FACS analysis.
Experiment [25] deals with HeLa. Kind of experiment: Cell cycle arrest in human HeLa cells assessed as minor accumulation at G2/M phase at 5 to 20 uM after 24 hrs by propidium iodide staining-based FACS analysis.
The subject of experiment [26] is SW1573. Kind of experiment: Cell cycle arrest in human SW1573 cells assessed as minor accumulation at S phase at 5 to 20 uM after 24 hrs by propidium iodide staining-based FACS analysis.
Experiment [27] concerns SW1573. Description: Cell cycle arrest in human SW1573 cells assessed as minor accumulation at G2/M phase at 5 to 20 uM after 24 hrs by propidium iodide staining-based FACS analysis.
The test system of experiment [28] is WiDr. Description: Cell cycle arrest in human WiDr cells assessed as minor accumulation at S phase at 5 to 20 uM after 24 hrs by propidium iodide staining-based FACS analysis.
Experiment [29] deals with T47D. Kind of experiment: Cell cycle arrest in human T47D cells assessed as minor accumulation at S phase at 5 to 20 uM after 24 hrs by propidium iodide staining-based FACS analysis.
Experiment [30] concerns T47D. Kind of experiment: Cell cycle arrest in human T47D cells assessed as minor accumulation at G2/M phase at 5 to 20 uM after 24 hrs by propidium iodide staining-based FACS analysis.

What is called pGI50 is −log10 of the GI50, conventionally taken in molar units. A lower pGI50 goes with a high GI50.

The structures appear in SMILES notation. Calls of active or inactive are those of the source. The calls are words filed in the database; no cut-off is given here.

`C=C(C(=O)OC)[C@@H]1CCC2=CC(=O)C[C@H](C)[C@@]2(C)C1` [TESSARIC ACID METHYL ESTER]: the result in experiment [1], in experiment [3], in experiment [5], in [6], in experiment [7] and in [8] was Active. Further, the result in experiment [9], in [11], in experiment [13], in experiment [14], in experiment [15] and in experiment [16] was Active. Moreover, the result in experiment [18], in experiment [19], in [20] and in experiment [21] was Active. For the same molecule, the negative-log GI50 (pGI50) in [2] amounted to 5.74; in experiment [4], 5.75; in experiment [12], 5.35; in [22], 5.63. Further, the GI50 is 2 µM in experiment [2] (read-out: GI50); 1.9 µM in experiment [4] (read-out: GI50); 2.4 µM in experiment [10] (read-out: GI50); 5.62 µM in [10] (read-out: pGI50 (converted)); 4.5 µM in experiment [12] (read-out: GI50); 3.8 µM in [17] (read-out: GI50). For the same molecule, the results for the GI50 in experiment [17] (read-out: pGI50 (converted)) and in [22] (read-out: GI50) were 5.44 µM and 2.4 µM, respectively.
With `C=C(C=O)[C@@H]1CC[C@@]2(C)CCC[C@@](C)(O)[C@@H]2C1` [ILICIC ALDEHYDE], the result in experiment [23], in [24], in experiment [25], in experiment [26], in experiment [27] and in experiment [28] was Active. The result in experiment [29] and in experiment [30] was Active. Besides, the GI50 is 12 µM in experiment [2] (read-out: GI50); 4.92 µM in [2] (read-out: pGI50 (converted)); 1.8 µM in experiment [4] (read-out: GI50); 5.58 µM in experiment [4] (read-out: pGI50 (converted)); 6.5 µM in experiment [10] (read-out: GI50); 5.19 µM in experiment [10] (read-out: pGI50 (converted)). Moreover, the GI50 in experiment [12] (read-out: GI50) was 16 µM; in [12] (read-out: pGI50 (converted)) it was 4.8 µM; in experiment [17] (read-out: GI50) it was 2 µM; in experiment [22] (read-out: GI50), 2.8 µM; in experiment [22] (read-out: pGI50 (converted)) it was 5.56 µM. In [17], this molecule came in with a pGI50 of 5.72.
